From the NIST ThermoML archive (doi:10.1016/j.jct.2011.09.022)

Conditions: Liquid, Closed cell (Static) method

CC#N [acetonitrile]
Conditions | vapor or sublimation pressure [kPa]
278.72 K | 4.443
278.88 K | 4.539
278.98 K | 4.513
279.81 K | 4.732
280.27 K | 4.859
281.91 K | 5.339
283.17 K | 5.637
283.56 K | 5.838
283.81 K | 5.916
284.56 K | 6.102
285.7 K | 6.473
286.17 K | 6.59
286.61 K | 6.754
288.72 K | 7.498
288.8 K | 7.559
288.83 K | 7.594
289.39 K | 7.802
290.09 K | 8.032
290.6 K | 8.302
291.36 K | 8.598
292.48 K | 9.163
293.21 K | 9.408
293.92 K | 9.82
294.4 K | 10.03
295.33 K | 10.43
295.94 K | 10.77
296.44 K | 11.02
297.48 K | 11.6
298.3 K | 12.05
298.67 K | 12.17
299.42 K | 12.61
301.19 K | 13.61
302.14 K | 14.18
304.16 K | 15.57
305.01 K | 16.1
306.04 K | 16.96
306.9 K | 17.53
307.95 K | 18.22
309.92 K | 19.85
310.71 K | 20.49
311.79 K | 21.38
311.88 K | 21.55
312.81 K | 22.5
313.77 K | 23.42
314.79 K | 24.17
315.71 K | 25.1
315.79 K | 25.15
316.63 K | 26.11
317.72 K | 27.21
318.66 K | 28.27
319.69 K | 29.39
320.67 K | 30.52
321.65 K | 31.73
322.54 K | 32.95
322.56 K | 32.94
322.64 K | 33.19
323.64 K | 34.49
324.59 K | 35.65
325.58 K | 37

C1CCOC1 [tetrahydrofuran]
Conditions | vapor or sublimation pressure [kPa]
275.99 K | 7.099
276.53 K | 7.556
277.76 K | 7.839
278.19 K | 8.328
279.41 K | 8.614
279.86 K | 9.036
280.16 K | 8.932
281.95 K | 9.957
283.07 K | 10.55
283.15 K | 10.32
283.36 K | 10.9
284.88 K | 11.68
286.55 K | 12.44
288.5 K | 13.79
289 K | 14
289.66 K | 14.48
291.04 K | 15.65
292.31 K | 16.65
293.3 K | 17.43
296.05 K | 19.72
296.84 K | 20.37
297.09 K | 20.65
298.15 K | 21.5
298.72 K | 22.24
300.57 K | 23.84
301.73 K | 25.28
302.96 K | 26.62
303.23 K | 26.87
304.04 K | 27.79
305.35 K | 29.43
306.54 K | 30.77
308.07 K | 32.49
310.2 K | 35.55
310.86 K | 36.65
311.9 K | 38.54
313.12 K | 40.13
313.18 K | 40.09
315.86 K | 44.65
317.71 K | 47.86
319.58 K | 51.31
321.57 K | 55.34
323.59 K | 59.46
